Measurements published in ChEMBL document CHEMBL1201862, “PubChem BioAssay data set” (2004).
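96-well plates; 48 h exposure; 5 concentrations. Endpoints by linear interpolation between flanking doses. Not reached: highest tested concentration assigned. Abbreviation: GI50, concentration required for 50% inhibition of growth.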 Calls of active or inactive are those of the source. Cut-off read from the data, not from the text of the source: active = GI50 up to about 1.1 µM and inactive = higher.

Legend:
Assay in all cases: inhibition of tumour cell growth, NCI panel, 48 h
786-0 = tested on: 786-0
A549 = tested on: A549
ACHN = tested on: ACHN
CCRF-CEM = tested on: CCRF-CEM
COLO 205 = tested on: COLO 205
DLD-1 = tested on: DLD-1
DMS-114 = tested on: DMS-114
DMS-273 = tested on: DMS-273
EKVX = tested on: EKVX
HCC 2998 = tested on: HCC 2998
HCT-116 = tested on: HCT-116
HCT-15 = tested on: HCT-15
HL-60 = tested on: HL-60
HOP-18 = tested on: HOP-18
HOP-62 = tested on: HOP-62
HOP-92 = tested on: HOP-92
HT-29 = tested on: HT-29
IGROV-1 = tested on: IGROV-1
KM-20L2 = tested on: KM-20L2
KM12 = tested on: KM12
LOX IMVI = tested on: LOX IMVI
LXFL 529 = tested on: LXFL 529
M14 = tested on: M14
M19-MEL = tested on: M19-MEL
Malme-3M = tested on: Malme-3M
NCI-H226 = tested on: NCI-H226
NCI-H23 = tested on: NCI-H23
NCI-H460 = tested on: NCI-H460
NCI-H522 = tested on: NCI-H522
OVCAR-3 = tested on: OVCAR-3
OVCAR-4 = tested on: OVCAR-4
OVCAR-5 = tested on: OVCAR-5
OVCAR-8 = tested on: OVCAR-8
RXF 393 = tested on: RXF 393
RXF 631 = tested on: RXF 631
SF-268 = tested on: SF-268
SF-295 = tested on: SF-295
SF-539 = tested on: SF-539
SK-MEL-28 = tested on: SK-MEL-28
SK-MEL-2 = tested on: SK-MEL-2
SK-MEL-5 = tested on: SK-MEL-5
SK-OV-3 = tested on: SK-OV-3
SN12C = tested on: SN12C
SNB-19 = tested on: SNB-19
SNB-75 = tested on: SNB-75
SNB-78 = tested on: SNB-78
SW-620 = tested on: SW-620
TK-10 = tested on: TK-10
U-251 = tested on: U-251
UACC-257 = tested on: UACC-257
UACC-62 = tested on: UACC-62
UO-31 = tested on: UO-31
XF498 = tested on: XF498
CAKI-1 = tested on: CAKI-1
K562 = tested on: K562
MOLT-4 = tested on: MOLT-4
RPMI-8226 = tested on: RPMI-8226
SR = tested on: SR
A498 = tested on: A498

With `CCCCCCCCCCCCCCCC(=O)NCC(OCC)OCC` the GI50 (786-0) was > 100 µM (inactive), the GI50 (A549) was > 100 µM (inactive) and the GI50 (ACHN) was > 100 µM (inactive). For the same molecule, the GI50 (CCRF-CEM) was > 100 µM (inactive), the GI50 (COLO 205) was > 100 µM (inactive) and the GI50 (DLD-1) was > 100 µM (inactive). The GI50 (DMS-114) was > 100 µM (inactive), the GI50 (DMS-273) was > 100 µM (inactive) and the GI50 (EKVX) was > 100 µM (inactive). The GI50 (HCC 2998) was > 100 µM (inactive), the GI50 (HCT-116) was > 100 µM (inactive) and the GI50 (HCT-15) was > 100 µM. The GI50 (HL-60) was > 100 µM (inactive), the GI50 (HOP-18) was > 100 µM (inactive) and the GI50 (HOP-62) was > 100 µM (inactive). The GI50 (HOP-92) was > 100 µM (inactive), the GI50 (HT-29) was > 100 µM (inactive) and the GI50 (IGROV-1) was > 100 µM (inactive). For the same molecule, the GI50 (KM-20L2) was > 100 µM (inactive), the GI50 (KM12) was > 100 µM (inactive) and the GI50 (LOX IMVI) was > 100 µM (inactive). The GI50 (LXFL 529) was > 100 µM (inactive), the GI50 (M14) was > 100 µM (inactive) and the GI50 (M19-MEL) was > 100 µM (inactive). For the same molecule, the GI50 (Malme-3M) was > 100 µM (inactive), the GI50 (NCI-H226) was > 100 µM (inactive) and the GI50 (NCI-H23) was > 100 µM (inactive). For the same molecule, the GI50 (NCI-H460) was > 100 µM (inactive), the GI50 (NCI-H522) was > 100 µM (inactive) and the GI50 (OVCAR-3) was > 100 µM (inactive). For the same molecule, the GI50 (OVCAR-4) was > 100 µM (inactive), the GI50 (OVCAR-5) was > 100 µM (inactive) and the GI50 (OVCAR-8) was > 100 µM (inactive). The GI50 (RXF 393) was > 100 µM (inactive), the GI50 (RXF 631) was > 100 µM (inactive) and the GI50 (SF-268) was > 100 µM (inactive). The GI50 (SF-295) was > 100 µM (inactive), the GI50 (SF-539) was > 100 µM (inactive) and the GI50 (SK-MEL-28) was > 100 µM (inactive). For the same molecule, the GI50 (SK-MEL-2) was > 100 µM (inactive), the GI50 (SK-MEL-5) was > 100 µM (inactive) and the GI50 (SK-OV-3) was > 100 µM (inactive). The GI50 (SN12C) was > 100 µM (inactive), the GI50 (SNB-19) was > 100 µM (inactive) and the GI50 (SNB-75) was > 100 µM (inactive). For the same molecule, the GI50 (SNB-78) was > 100 µM (inactive), the GI50 (SW-620) was > 100 µM (inactive) and the GI50 (TK-10) was > 100 µM (inactive). The GI50 (U-251) was > 100 µM (inactive), the GI50 (UACC-257) was > 100 µM (inactive) and the GI50 (UACC-62) was > 100 µM (inactive). For the same molecule, the GI50 (UO-31) was > 100 µM (inactive) and the GI50 (XF498) was > 100 µM (inactive).

With `CC(C)NC(=O)OCc1nnn2c1C(OC(=O)NC(C)C)CC2` (stereo not drawn) the GI50 (786-0) was > 100 µM (inactive), the GI50 (A549) was > 100 µM (inactive) and the GI50 (CAKI-1) was > 100 µM (inactive). The GI50 (COLO 205) was > 100 µM (inactive), the GI50 (DLD-1) was > 100 µM (inactive) and the GI50 (DMS-114) was > 100 µM (inactive). For the same molecule, the GI50 (DMS-273) was > 100 µM (inactive), the GI50 (EKVX) was > 100 µM (inactive) and the GI50 (HCC 2998) was > 100 µM (inactive). For the same molecule, the GI50 (HCT-116) was > 100 µM (inactive), the GI50 (HCT-15) was > 100 µM and the GI50 (HOP-18) was > 100 µM (inactive). For the same molecule, the GI50 (HOP-92) was > 100 µM (inactive), the GI50 (HT-29) was > 100 µM (inactive) and the GI50 (IGROV-1) was > 100 µM (inactive). For the same molecule, the GI50 (K562) was > 100 µM (inactive), the GI50 (KM-20L2) was > 100 µM (inactive) and the GI50 (KM12) was > 100 µM (inactive). For the same molecule, the GI50 (LXFL 529) was > 100 µM (inactive), the GI50 (M14) was > 100 µM (inactive) and the GI50 (M19-MEL) was > 100 µM (inactive). For the same molecule, the GI50 (MOLT-4) was > 100 µM (inactive), the GI50 (Malme-3M) was > 100 µM (inactive) and the GI50 (NCI-H226) was > 100 µM (inactive). The GI50 (NCI-H23) was > 100 µM (inactive), the GI50 (NCI-H460) was > 100 µM (inactive) and the GI50 (NCI-H522) was > 100 µM (inactive). The GI50 (OVCAR-3) was > 100 µM (inactive), the GI50 (OVCAR-4) was > 100 µM (inactive) and the GI50 (OVCAR-5) was > 100 µM (inactive). The GI50 (OVCAR-8) was > 100 µM (inactive), the GI50 (RPMI-8226) was > 100 µM (inactive) and the GI50 (RXF 393) was > 100 µM (inactive). For the same molecule, the GI50 (RXF 631) was > 100 µM (inactive), the GI50 (SF-295) was > 100 µM (inactive) and the GI50 (SF-539) was > 100 µM (inactive). The GI50 (SK-MEL-28) was > 100 µM (inactive), the GI50 (SK-MEL-2) was > 100 µM (inactive) and the GI50 (SK-MEL-5) was > 100 µM (inactive). The GI50 (SK-OV-3) was > 100 µM (inactive), the GI50 (SN12C) was > 100 µM (inactive) and the GI50 (SNB-19) was > 100 µM (inactive). For the same molecule, the GI50 (SNB-75) was > 100 µM (inactive), the GI50 (SNB-78) was > 100 µM (inactive) and the GI50 (SR) was > 100 µM (inactive). The GI50 (SW-620) was > 100 µM (inactive), the GI50 (TK-10) was > 100 µM (inactive) and the GI50 (U-251) was > 100 µM (inactive). For the same molecule, the GI50 (UACC-257) was > 100 µM (inactive), the GI50 (UACC-62) was > 100 µM (inactive) and the GI50 (UO-31) was > 100 µM (inactive). For the same molecule, the GI50 (XF498) was > 100 µM (inactive).

`CC[C@@H]1NC(C(=O)OC)Cc2c1[nH]c1ccccc21` (stereo partly drawn) was tested, and the GI50 (786-0) was > 100 µM (inactive), the GI50 (A498) was > 100 µM (inactive) and the GI50 (A549) was > 100 µM (inactive). For the same molecule, the GI50 (ACHN) was > 100 µM (inactive), the GI50 (CAKI-1) was > 100 µM (inactive) and the GI50 (CCRF-CEM) was > 100 µM (inactive). The GI50 (COLO 205) was > 100 µM (inactive), the GI50 (DLD-1) was > 100 µM (inactive) and the GI50 (DMS-114) was > 100 µM (inactive). For the same molecule, the GI50 (DMS-273) was > 100 µM (inactive), the GI50 (EKVX) was > 100 µM (inactive) and the GI50 (HCC 2998) was > 100 µM (inactive). For the same molecule, the GI50 (HCT-116) was > 100 µM (inactive), the GI50 (HCT-15) was > 100 µM and the GI50 (HL-60) was > 100 µM (inactive). For the same molecule, the GI50 (HOP-18) was > 100 µM (inactive), the GI50 (HOP-92) was > 100 µM (inactive) and the GI50 (HT-29) was > 100 µM (inactive). The GI50 (IGROV-1) was > 100 µM (inactive), the GI50 (K562) was > 100 µM (inactive) and the GI50 (KM-20L2) was > 100 µM (inactive). For the same molecule, the GI50 (KM12) was > 100 µM (inactive), the GI50 (LOX IMVI) was > 100 µM (inactive) and the GI50 (LXFL 529) was > 100 µM (inactive). For the same molecule, the GI50 (M14) was > 100 µM (inactive), the GI50 (M19-MEL) was > 100 µM (inactive) and the GI50 (MOLT-4) was > 100 µM (inactive). For the same molecule, the GI50 (Malme-3M) was > 100 µM (inactive), the GI50 (NCI-H226) was > 100 µM (inactive) and the GI50 (NCI-H23) was > 100 µM (inactive). For the same molecule, the GI50 (NCI-H460) was 27.9 µM (inactive), the GI50 (OVCAR-3) was > 100 µM (inactive) and the GI50 (OVCAR-4) was > 100 µM (inactive). For the same molecule, the GI50 (OVCAR-5) was > 100 µM (inactive), the GI50 (OVCAR-8) was > 100 µM (inactive) and the GI50 (RXF 631) was > 100 µM (inactive). For the same molecule, the GI50 (SF-295) was > 100 µM (inactive), the GI50 (SF-539) was > 100 µM (inactive) and the GI50 (SK-MEL-28) was > 100 µM (inactive). The GI50 (SK-MEL-2) was > 100 µM (inactive), the GI50 (SK-MEL-5) was > 100 µM (inactive) and the GI50 (SK-OV-3) was > 100 µM (inactive). For the same molecule, the GI50 (SN12C) was > 100 µM (inactive), the GI50 (SNB-19) was > 100 µM (inactive) and the GI50 (SNB-75) was > 100 µM (inactive). For the same molecule, the GI50 (SNB-78) was > 100 µM (inactive), the GI50 (SR) was > 100 µM (inactive) and the GI50 (SW-620) was > 100 µM (inactive). The GI50 (TK-10) was > 100 µM (inactive), the GI50 (U-251) was > 100 µM (inactive) and the GI50 (UACC-257) was > 100 µM (inactive). For the same molecule, the GI50 (UACC-62) was > 100 µM (inactive) and the GI50 (UO-31) was > 100 µM (inactive).
